Data as given in patent US20220304352A1, “TASTE-MODIFYING COMPOUNDS AND USES THEREOF” (Firmenich SA, priority 2019, published 2022).

How the values were obtained:
Type in all cases: in vivo
trained panelists [1] = test: Sensory evaluation of umami in 0.05% MSG base (trained panel, scale -5 to 5)
From the text: (§1) A panel consisting of 25 trained panelists evaluated samples at 5, 10 or 20 ppm for taste properties (salt and/or umami, or KCl taste) on a scale of −5 to 5 (−5 denoted strong masking effect and 5 denoted strong enhancing effect, 0 being the intensity of a reference water solution containing 0.25% NaCl or 0.25% KCl or 0.05% MSG or 1.5% chicken broth base). A panel consisted of 25 trained panelists evaluated samples at 5 ppm for taste properties (salt and/or umami) on a scale of −5 to 5 (−5 denoted strong masking effect and 5 denoted strong enhancing effect, 0 being the intensity of a reference water solution containing 0.25% NaCl or 0.05% MSG or 1.5% chicken broth base). • 1) Sensory Evaluation

trained panelists [2] = test: Sensory evaluation of saltiness in 0.25% NaCl base (trained panel, scale -5 to 5)
From the text: as §1

trained panelists [3] = test: Sensory evaluation of saltiness and KCl taste in 0.25% KCl base (trained panel, scale -5 to 5); conditions: 0.25% KCl base, 20 ppm
From the text: A panel consisting of 25 trained panelists evaluated samples at 5, 10 or 20 ppm for taste properties (salt and/or umami, or KCl taste) on a scale of −5 to 5 (−5 denoted strong masking effect and 5 denoted strong enhancing effect, 0 being the intensity of a reference water solution containing 0.25% NaCl or 0.25% KCl or 0.05% MSG or 1.5% chicken broth base).

O=C(NCCO)c1ccc(O)cc1 [Compound III]
umami enhancement (trained panelists [1]; 5 ppm, with nose-clip): enhanced umami | umami enhancement (trained panelists [1]; 5 ppm, without nose-clip): enhanced umami | saltiness enhancement (trained panelists [2]; 5 ppm, with nose-clip): significantly enhanced saltiness | saltiness enhancement (trained panelists [2]; 5 ppm, without nose-clip): significantly enhanced saltiness

O=C(NCCO)c1ccccc1 [Compound II]
umami enhancement (trained panelists [1]; 5 ppm, with nose-clip): enhanced | umami enhancement (trained panelists [1]; 5 ppm, without nose-clip): enhanced umami | saltiness enhancement (trained panelists [2]; 5 ppm, with nose-clip): significantly enhanced saltiness | saltiness enhancement (trained panelists [2]; 5 ppm, without nose-clip): enhanced saltiness

O=C(/C=C/c1ccccc1)NCCO [Compound IV]
umami enhancement (trained panelists [1]; 10 ppm, with nose-clip): enhanced umami | umami enhancement (trained panelists [1]; 10 ppm, without nose-clip): enhanced umami | saltiness enhancement (trained panelists [2]; 10 ppm, with nose-clip): significantly enhanced saltiness | saltiness enhancement (trained panelists [2]; 10 ppm, without nose-clip): enhanced saltiness

N=C(N)NCCCC(NC(=O)/C=C/c1ccccc1)C(=O)O (stereo not drawn) [Compound VI]
umami enhancement (trained panelists [1]; 5 ppm, without nose-clip): significantly enhanced umami intensity | umami enhancement (trained panelists [1]; 10 ppm, with nose-clip): enhanced | umami enhancement (trained panelists [1]; 10 ppm, without nose-clip): enhanced | saltiness enhancement (trained panelists [2]; 5 ppm, with nose-clip): significantly enhanced saltiness intensity | saltiness enhancement (trained panelists [2]; 10 ppm, with nose-clip): enhanced saltiness | saltiness enhancement (trained panelists [2]; 10 ppm, without nose-clip): enhanced saltiness

O=C(/C=C/C=C/c1ccc2c(c1)OCO2)NCCO [Compound V]
umami enhancement (trained panelists [1]; 20 ppm, with nose-clip): enhanced umami | umami enhancement (trained panelists [1]; 20 ppm, without nose-clip): enhanced umami | KCl taste masking (trained panelists [3]; with nose-clip): significantly masked KCl taste | saltiness enhancement (trained panelists [3]; with nose-clip): enhanced saltiness | KCl taste masking (trained panelists [3]; without nose-clip): significantly masked KCl taste | saltiness enhancement (trained panelists [3]; without nose-clip): enhanced saltiness
